What was measured:
C2C12 myoblasts = assay: Myogenic differentiation of C2C12 myoblasts; assay type: cell-based, mouse; settings: for MyHC-positive mature myotubes (immunofluorescence): C2C12 differentiation day 5-7
Method: Pictures were taken every day to monitor morphological progression, and proteins and RNA samples were collected on days indicated.
C2C12, C2C12 Bmal1 KD and C2C12 Scrambled control (SC) myoblasts were seeded at Day −1 at 2×105 concentration on 12 wells plates and maintained in 10% FBS until 80% confluency and treated with indicated compounds and controls in 2% FBS DMEM media to induce differentiation on Day 0. On days 3, 5 and 7 cells were fixed with 4% paraformaldehyde (from 37% Formaldehyde Baker Analyzed) and kept at 4° C. in PBS. Cells were permeabilized with Permeabilization solution of 0.5% Triton X-100 (Fisher Bioreagents CN: 9002-93-1) in PBS and blocked with Blocking solution of 1% BSA (Fisher Bioreagents CN:9048-46-8) in PBS. Primary antibodies were diluted in Washing solution of 0.01% Triton X-100 (Fisher Bioreagents CN: 9002-93-1) in PBS and left overnight at 4° C. Cells were then incubated with secondary antibodies in Washing solution at room temperature for 1 h. 1 μg/ml 4′,6′-diamidine-2′-phenylindole dihydrochloride (DAPI) was used to label for nuclei. […] To quantify the proliferation of myoblast, when needed, cells were treated with 1 μg/ml of EdU for 3 h before fixation. Detection of EdU was performed with Click-iT EdU Alexa Fluor 488 Imaging Kit before applying the immunofluorescence staining as described above.

mdx mice = assay: Direct intramuscular injection into Tibialis Anterior muscle of mdx mice; assay type: in vivo, mouse; settings: for Evans Blue Dye (EBD) positive area (muscle damage): 150 ul of 2 uM daily for 3 days; for amount of satellite cells / satellite cell proliferation (EdU+/Pax7+ within Pax7+ pool): 150 μl of 2 μM daily for three days; for transcript levels of clock regulators and myogenic factors / expression of pro-inflammatory cytokines TNF-α, IL-6 and iNOS: RT-qPCR; for transcript levels of clock regulators and myogenic factors: mdx muscle; for expression of pro-inflammatory cytokines TNF-α, IL-6 and iNOS: mdx TA muscle, 3 daily doses; for reduction of creatine kinase (CK) levels, ex vivo TA explants: media of TA explant cultured 24 hours; for myofiber size distribution (cross section area) / Pax7 and CyclinD1 / new myofiber formation (eMyHC staining) / protein levels of clock regulators Bmal1, CLOCK, Rev-erbα / protein levels of myogenic factors: three daily doses; for Pax7 and CyclinD1 / new myofiber formation (eMyHC staining) / protein levels of clock regulators Bmal1, CLOCK, Rev-erbα / protein levels of myogenic factors: 50 μl of 2 μM
From the text: FIGS. 17A-17C. In vivo effect of chlorhexidine on inducing regenerative repair of mdx dystrophic muscle. Based on the effects of CHX on promoting myogenic differentiation, we postulated that it may enhance myogenesis in vivo to promote regenerative repair in dystrophic muscle. […] FIG. 17A: Initial preliminary data was obtained from mice injected with one or two injections (one day apart) of CHX dissolved in DMSO. […] FIG. 17B: Next, we further tested the in vivo effect of CHX by three doses using PBS solution to avoid potential membrane damage by DMSO. […] FIG. 17C: Lastly, we examined the effect of triple CHX injection on clock and myogenic factor proteins in individual and individual mdx muscle. […] Variability observed between individual mice could be due to the in vivo injection.
FIG. 18. In vivo effect of chlorhexidine on inducing nascent myofiber regeneration of mdx dystrophic muscle. To directly examine effect of CHX in vivo injection on dystrophic muscle repair, we performed immunofluorescence staining of embryonic myosin heavy chain (eMyHC) to identify nascent regenerated myofiber using frozen TA cross sections from mdx mice following triple injections. Laminin staining was used to delineate basal lamina of myofiber.
FIGS. 43A-43D. CHX and CM002 promote regenerative myogenesis in dystrophic mdx mice. Based on the effect of CHX and CM002 on promoting regenerative myogenesis, we next tested whether they exert protective effects in dystrophic disease conditions via local intramuscular delivery in the mdx mice, an established model for muscular dystrophy.
FIGS. 44A-44D. CM002 and CHX stimulate satellite cell proliferative expansion and myogenic gene induction in mdx mice. As Pax7 and CyclinD1 levels were increased by CM002 and CHX in mdx TA, we directly examined the proliferation of satellite cells via EdU labeling with co-staining for Pax7 to identify satellite cells.
FIGS. 45A-45D. CM002 and CHX protects against dystrophic muscle damage in mdx mice. Given that local delivery of CHX and CM002 stimulated new myofiber formation to promote regenerative repair, we next examined whether these effects lead to protection against dystrophic injury. […] Most importantly, using ex vivo TA explants, we determined creatine kinase secretion from treated TA muscles as a direct indicator to assess muscle injury.
FIGS. 46A-46D. CHX and CM002 ameliorate inflammatory milieu of muscular dystrophy. Chronic inflammation in dystrophic muscle, due to the persistent muscle damage with sustained degeneration and regeneration cycles, is a significant component of the pathogenic characteristics of muscular dystrophy contributing to muscle wasting. We thus determined potential ameliorative effects of CHX and CM002 on muscle inflammation in the mdx mice. […] To further test whether the reduction of inflammation in muscle could be due to direct modulation of macrophage pro-inflammatory activities, we determined CHX and CM002 effects in primary bone marrow-derived macrophages.

[1] = system: dystrophin-deficient mdx primary myoblasts; assay: Myogenic differentiation of mdx primary myoblasts (MyHC staining); assay type: cell-based, mouse; settings: for mature myofiber/myocyte formation (MyHC staining): 2% FBS, vs DMSO
From the text: FIGS. 16A-16B. Pro-myogenic effect of chlorhexidine on dystrophin-deficient mdx primary myoblasts. FIG. 16A: We used primary myoblasts isolated from male mdx mice as a cellular model to test the effect of CHX on myogenesis. […] Both of the pro-myogenic and proliferative effects of CHX observed in mdx primary myoblasts were consistent with prior findings from C2C12 myoblasts. Additional validations of these effects are on-going using myoblasts derived from human DMD patients.
FIGS. 22A-22B. […] Using primary myoblasts isolated from mdx mice, we determined CM002 effect on myogenesis in this dystrophic disease cellular model. […] Similar as shown in C2C12 myoblasts, this effect was stronger than that of CHX.

CCCCCC/C=N/C(=N)NC(=N)Nc1ccc(Cl)cc1 [CM002]
MyHC-positive mature myotubes (immunofluorescence) (C2C12 myoblasts): enhanced differentiation induced by 0.5 μM CM002 than CHX with strongest effect on promoting myotube formation observed at CM002 at 1 μM | Myogenesis (C2C12 myoblasts; Table 1 summary of CHX analogs): Enhanced | Evans Blue Dye (EBD) positive area (muscle damage) (mdx mice): significantly reduced the areas stained positive for EBD | amount of satellite cells (mdx mice): not significantly altered | satellite cell proliferation (EdU+/Pax7+ within Pax7+ pool) (mdx mice): sufficient to stimulate satellite cells proliferative expansion in dystrophic muscle to a similar degree | transcript levels of clock regulators and myogenic factors (mdx mice): corresponding increase of their transcript levels | expression of pro-inflammatory cytokines TNF-α, IL-6 and iNOS (mdx mice): consistent reduction of expression of the pro-inflammatory cytokines examined | reduction of creatine kinase (CK) levels, ex vivo TA explants (mdx mice): ~35% | myofiber size distribution (cross section area) (mdx mice): striking left shift toward smaller myofibers | Pax7 and CyclinD1 (mdx mice): also induced | new myofiber formation (eMyHC staining) (mdx mice): increased new myofiber formation | protein levels of clock regulators Bmal1, CLOCK, Rev-erbα (mdx mice): significantly elevated with stronger effect by CM002 | protein levels of myogenic factors (mdx mice): elevated protein levels of myogenic factors | myotube fusion, cells seeded at low density ([1]; 1 μM vs 0.5 μM, day 3): more advanced myotube fusion than that of 0.5 μM | mature myofiber/myocyte formation (MyHC staining) ([1]; day 3 of differentiation): significantly enhanced mature myocyte formation induced by 0.5 μM CM002 treatment

[H]/N=C(\N/C(=N/[H])NCCCCCCNC(=N)NC(=N)Nc1ccc(Cl)cc1)Nc1ccc(Cl)cc1 [CHX, chlorhexidine]
myotube hypertrophy (C2C12 myoblasts; 0.5 μM, Day 7): induced notable myotube hypertrophy | morphological progression of myotube formation (C2C12 myoblasts; 2% serum differentiation, phase-contrast): markedly accelerated the morphological progression of myotube formation | induction of Myf5 and eMyhc in Bmal1-deficient myoblasts (C2C12 myoblasts; BMKD myoblasts): loss of CHX induction of Myf5 and eMyhc | differentiation of Bmal1 shRNA (BMKD) myoblasts (C2C12 myoblasts; BMKD vs SC): failed to augment BMKD myoblast differentiation | MyHC-positive mature myotubes (immunofluorescence) (C2C12 myoblasts): increased numbers of MyHC-positive mature myotubes | effective concentration range, pro-myogenic activities (C2C12 myoblasts; C2C12 myoblasts): 0.2 to 0.5 µM | toxicity during differentiation (C2C12 myoblasts; CHX at 2 and 5 μM): appeared to be toxic to myoblasts with cell death during differentiation | Myf5, Myod1 and eMyhc expressions (C2C12 myoblasts; RT-qPCR): significantly induced by 0.5 μM CHX with a tendency toward higher expression 0.2 μM | Myf5 and Myogenin proteins (C2C12 myoblasts; day 3 and day 5 of differentiation, immunoblot): early induction of myogenic factors Myf5 and Myogenin proteins | Evans Blue Dye (EBD) positive area (muscle damage) (mdx mice): significantly reduced the areas stained positive for EBD | amount of satellite cells (mdx mice): not significantly altered | satellite cell proliferation (EdU+/Pax7+ within Pax7+ pool) (mdx mice): sufficient to stimulate satellite cells proliferative expansion in dystrophic muscle to a similar degree | transcript levels of clock regulators and myogenic factors (mdx mice): corresponding increase of their transcript levels | expression of pro-inflammatory cytokines TNF-α, IL-6 and iNOS (mdx mice): consistent reduction of expression of the pro-inflammatory cytokines examined | reduction of creatine kinase (CK) levels, ex vivo TA explants (mdx mice): approximately 50% | protein expression of clock regulators (CLOCK, Rev-erbα) and myogenic factors (Myf5, Myogenin) (mdx mice; one or two injections, 50 μl of 2 μM in DMSO): stronger inductions by two doses | myofiber size distribution (cross section area) (mdx mice): striking left shift toward smaller myofibers | Pax7 and CyclinD1 (mdx mice): also induced | new myofiber formation (eMyHC staining) (mdx mice): increased new myofiber formation | protein levels of clock regulators Bmal1, CLOCK, Rev-erbα (mdx mice): significantly elevated | protein levels of myogenic factors (mdx mice): elevated protein levels of myogenic factors | Pax7 protein (mdx mice; three doses in PBS, pooled samples): strongly induced | myogenic factors and Bmal1 protein in individual mdx muscle (mdx mice; triple injection, n=3): two of three mice injected with CHX demonstrated marked inductions of myogenic factors together with up-regulation of Bmal1 protein | eMyHC staining (nascent regenerated myofiber) (mdx mice; triple injections, vs PBS): robust eMyHC indicative of newly-regenerated myofibers | pro-myogenic effect in Bmal1-deficient (BMKO/mdx) primary myoblasts ([1]; day 3 of differentiation): abolished in Bmal1-deficient mdx primary myoblasts | mature myofiber/myocyte formation (MyHC staining) ([1]; day 3 of differentiation): significantly elevated formation of mature myofibers
